Source: patent US20090192048A1, “METHOD OF PRODUCING A […] AGENT FOR BINDING A LIGAND” (priority 2005, published 2009)
Ends that are not written are not given here.

Test: Retention of peptides 2DOS-1 to 2DOS-16 on a hydrophobic surface (polypropylene microtitre plate wells), water wash
Type: physicochemical
Conditions: 400V scan; 100 μl of 10 μM peptide before drying and washing
Procedure: The retention of peptides 2DOS-1 to 2DOS-16 on a hydrophobic surface (the wells of a polypropylene microtitre plate) was then investigated.
(§1) 10 mM tris-HCl (pH 8.0) in 50% (v/v) aqueous acetonitrile was used as the solvent for the peptides and for TAMRA.
100 μl aliquots of 10 μM peptides 2DOS-1 to 2DOS-16 and 10 μM TAMRA were placed in the wells of a Costar microtitre plate as shown in FIG. 13:
(§2) The microtitre plate was imaged at 200 μm resolution on a Typhoon Trio Plus variable mode imager (Amersham Biosciences) with the green (532 nm) laser and the 580 BP 30 filter at the PMT voltages indicated below and at normal sensitivity. The scan height was set at +3 mm and the sample was pressed during scanning.
The peptides were allowed to evaporate to dryness overnight in the dark and the microtitre plate was again scanned as described above.
The wells were then washed ten times with 250 μl of water.
The residual surface-bound peptides were finally resuspended in 100 μl of 10 mM tris-HCl (pH 8.0) in 50% (v/v) aqueous acetonitrile and the microtitre plate was again scanned as described above.
(§3) The fluorescence images were analysed using ImageQuant TL v2003.03 (Amersham Biosciences).
Quantification data (using the data from the 400V scan) is given in Table 2 and shown graphically in FIG. 15.

Q: For “N-TAMPA- Asp-Norleu- Ala-Norleu-Ser- Norleu-Lys-C [Peptide 2DOS-5]”, which “Initial fluorescence (×10^3)” value is on record?
A: The value was 32,473 ×10^3.

Q: For “N-TAMPA-Asp-Asp- Asp-Ala-Asp-Ser- Asp-Lys-Asp-C ({TAMRA}-DDDADSDKD) [Peptide 2DOS-4]”, which “Initial fluorescence (×10^3)” value is on record?
A: The value was 32,313 ×10^3.

Same assay, conditions: 400V scan; dried, washed ten times with 250 μl water, resuspended

Q: Which “Recovered fluorescence (×10^3)” value does the source give for “N-TAMPA- Asp-Norleu- Ala-Norleu-Ser- Norleu-Lys-C [Peptide 2DOS-5]” here?
A: The value was 1,270 ×10^3.

Q: For “N-TAMPA-Asp-Asp- Asp-Ala-Asp-Ser- Asp-Lys-Asp-C ({TAMRA}-DDDADSDKD) [Peptide 2DOS-4]”, which “Recovered fluorescence (×10^3)” value is on record?
A: The value was 0 ×10^3.

Test: Retention of peptides in V-bottomed polypropylene wells
Type: physicochemical
Conditions: V-bottom wells; 500V scan
Procedure: (§4) The retention of peptides 2DOS-1 to 2DOS-16 (see above) on polypropylene wells of different geometries was investigated:
as §1
(§5) 1 μl aliquots of 10 μM peptides 2DOS-1 to 2DOS-16 and 10 μM TAMRA were pipetted into the wells of a Costar V-bottomed polypropylene microtitre plate and a Greiner flat-bottomed polypropylene microtitre plate according to the following scheme as shown in FIG. 22:
(§6) The peptide samples were allowed to evaporate to dryness in the dark.
(§7) The peptide samples in the top two rows of the microtitre plates were then incubated for 15′ minutes at room temperature in 250 μl of 1 M NaCl in 10 mM tris-HCl (pH 8.0).
(§8) After incubation, the wash buffer was pipetted up and down eight times in the well before removing the supernatant.
(§9) The washed and untreated peptide samples were then resuspended in 50 μl of 10 mM tris-HCl (pH 8.0) in 50% (v/v) aqueous acetonitrile.
as §2, with “plates were” for “plate was”, “the platen” for “+3 mm”, “during,” for “during”
as §3

Q: Which Percent retention does the source give for “N-TAMPA- Asp-Norleu- Ala-Norleu-Ser- Norleu-Lys-C [Peptide 2DOS-5]” here?
A: Its Percent retention is 36%.

Q: Which Percent retention does the source give for “N-TAMPA-Asp-Asp- Asp-Ala-Asp-Ser- Asp-Lys-Asp-C ({TAMRA}-DDDADSDKD) [Peptide 2DOS-4]” here?
A: The Percent retention was 2%.

Same assay, conditions: V-bottom wells; 500V scan; unwashed

Q: With “N-TAMPA- Asp-Norleu- Ala-Norleu-Ser- Norleu-Lys-C [Peptide 2DOS-5]” as the substance, how does the Untreated fluorescence read?
A: Its Untreated fluorescence is 8,664,667.

Q: With “N-TAMPA-Asp-Asp- Asp-Ala-Asp-Ser- Asp-Lys-Asp-C ({TAMRA}-DDDADSDKD) [Peptide 2DOS-4]” as the substance, how does the Untreated fluorescence read?
A: The Untreated fluorescence was 8,265,596.

Same assay, conditions: V-bottom wells; 500V scan; washed 15 minutes in 1 M NaCl in 10 mM tris-HCl (pH 8.0)

Q: For “N-TAMPA- Asp-Norleu- Ala-Norleu-Ser- Norleu-Lys-C [Peptide 2DOS-5]”, which Retained fluorescence is on record?
A: Its Retained fluorescence is 3,116,833.

Q: Which Retained fluorescence does the source give for “N-TAMPA-Asp-Asp- Asp-Ala-Asp-Ser- Asp-Lys-Asp-C ({TAMRA}-DDDADSDKD) [Peptide 2DOS-4]” here?
A: The Retained fluorescence was 159,080.

Test: Retention of peptides in flat-bottomed polypropylene wells
Type: physicochemical
Conditions: flat-bottom wells; 500V scan
Procedure: as §4, §1, §5, §6, §7, §8, §9
as §2, with “plates were” for “plate was”, “the platen” for “+3 mm”, “during,” for “during”
as §3

Q: For “N-TAMPA- Asp-Norleu- Ala-Norleu-Ser- Norleu-Lys-C [Peptide 2DOS-5]”, which Percent retention is on record?
A: The Percent retention was 45%.

Q: For “N-TAMPA-Asp-Asp- Asp-Ala-Asp-Ser- Asp-Lys-Asp-C ({TAMRA}-DDDADSDKD) [Peptide 2DOS-4]”, which Percent retention is on record?
A: The Percent retention was 2%.

Same assay, conditions: flat-bottom wells; 500V scan; unwashed

Q: Which Untreated fluorescence does the source give for “N-TAMPA- Asp-Norleu- Ala-Norleu-Ser- Norleu-Lys-C [Peptide 2DOS-5]” here?
A: The Untreated fluorescence was 14,337,629.

Q: For “N-TAMPA-Asp-Asp- Asp-Ala-Asp-Ser- Asp-Lys-Asp-C ({TAMRA}-DDDADSDKD) [Peptide 2DOS-4]”, which Untreated fluorescence is on record?
A: The Untreated fluorescence was 11,885,905.

Same assay, conditions: flat-bottom wells; 500V scan; washed 15 minutes in 1 M NaCl in 10 mM tris-HCl (pH 8.0)

Q: With “N-TAMPA- Asp-Norleu- Ala-Norleu-Ser- Norleu-Lys-C [Peptide 2DOS-5]” as the substance, how does the Retained fluorescence read?
A: The Retained fluorescence was 6,492,170.

Q: For “N-TAMPA-Asp-Asp- Asp-Ala-Asp-Ser- Asp-Lys-Asp-C ({TAMRA}-DDDADSDKD) [Peptide 2DOS-4]”, which Retained fluorescence is on record?
A: Its Retained fluorescence is 198,507.

Test: Retention of peptides on Costar polypropylene V-bottom wells
Type: physicochemical
Conditions: 400V scan
Procedure: (§10) The retention of peptides 2DOS-1 to 2DOS-16 (see above) on polypropylene and polystyrene surfaces was compared:
(§11) 5 mM tris-HCl (pH 8.0) in 75% (v/v) aqueous acetonitrile was used as the solvent for the peptides and for TAMRA.
(§12) 20 μl aliquots of 5 μM peptides 2DOS-1 to 2DOS-16 and 5 μM TAMRA were pipetted into the wells of a Costar V-bottomed polypropylene microtitre plate, a Greiner V-bottomed polypropylene microtitre plate, and a Greiner V-bottomed polystyrene microtitre plate according to the scheme shown in FIG. 26:
as §6
(§13) The peptide samples in the top two rows of the microtitre plates were then incubated for 15 minutes at room temperature in 250 μl of 1 M NaCl in 10 mM tris-HCl (pH 8.0).
as §8, §9
as §2, with “plates were” for “plate was”
as §3

Q: With “N-TAMPA- Asp-Norleu- Ala-Norleu-Ser- Norleu-Lys-C [Peptide 2DOS-5]” as the substance, how does the Percent retention read?
A: Its Percent retention is 31%.

Q: With “N-TAMPA-Asp-Asp- Asp-Ala-Asp-Ser- Asp-Lys-Asp-C ({TAMRA}-DDDADSDKD) [Peptide 2DOS-4]” as the substance, how does the Percent retention read?
A: Its Percent retention is 1%.

Same assay, conditions: 400V scan, unwashed

Q: Which Untreated fluorescence does the source give for “N-TAMPA- Asp-Norleu- Ala-Norleu-Ser- Norleu-Lys-C [Peptide 2DOS-5]” here?
A: Its Untreated fluorescence is 5,331,763.

Q: Which Untreated fluorescence does the source give for “N-TAMPA-Asp-Asp- Asp-Ala-Asp-Ser- Asp-Lys-Asp-C ({TAMRA}-DDDADSDKD) [Peptide 2DOS-4]” here?
A: The Untreated fluorescence was 5,661,181.

Same assay, conditions: 400V scan, washed 15 minutes in 1 M NaCl in 10 mM tris-HCl (pH 8.0)

Q: For “N-TAMPA- Asp-Norleu- Ala-Norleu-Ser- Norleu-Lys-C [Peptide 2DOS-5]”, which Retained fluorescence is on record?
A: Its Retained fluorescence is 1,651,850.

Q: Which Retained fluorescence does the source give for “N-TAMPA-Asp-Asp- Asp-Ala-Asp-Ser- Asp-Lys-Asp-C ({TAMRA}-DDDADSDKD) [Peptide 2DOS-4]” here?
A: Its Retained fluorescence is 74,143.

Test: Retention of peptides on Greiner polypropylene V-bottom wells
Type: physicochemical
Conditions: 400V scan
Procedure: as §10, §11, §12, §6, §13, §8, §9
as §2, with “plates were” for “plate was”
as §3

Q: Which Percent retention does the source give for “N-TAMPA- Asp-Norleu- Ala-Norleu-Ser- Norleu-Lys-C [Peptide 2DOS-5]” here?
A: The Percent retention was 27%.

Q: For “N-TAMPA-Asp-Asp- Asp-Ala-Asp-Ser- Asp-Lys-Asp-C ({TAMRA}-DDDADSDKD) [Peptide 2DOS-4]”, which Percent retention is on record?
A: Its Percent retention is 1%.

Same assay, conditions: 400V scan, unwashed

Q: Which Untreated fluorescence does the source give for “N-TAMPA- Asp-Norleu- Ala-Norleu-Ser- Norleu-Lys-C [Peptide 2DOS-5]” here?
A: Its Untreated fluorescence is 3,817,250.

Q: For “N-TAMPA-Asp-Asp- Asp-Ala-Asp-Ser- Asp-Lys-Asp-C ({TAMRA}-DDDADSDKD) [Peptide 2DOS-4]”, which Untreated fluorescence is on record?
A: The Untreated fluorescence was 3,937,734.

Same assay, conditions: 400V scan, washed 15 minutes in 1 M NaCl in 10 mM tris-HCl (pH 8.0)

Q: With “N-TAMPA- Asp-Norleu- Ala-Norleu-Ser- Norleu-Lys-C [Peptide 2DOS-5]” as the substance, how does the Retained fluorescence read?
A: The Retained fluorescence was 1,048,978.

Q: With “N-TAMPA-Asp-Asp- Asp-Ala-Asp-Ser- Asp-Lys-Asp-C ({TAMRA}-DDDADSDKD) [Peptide 2DOS-4]” as the substance, how does the Retained fluorescence read?
A: The Retained fluorescence was 50,669.

Test: Retention of peptides on Greiner polystyrene V-bottom wells
Type: physicochemical
Conditions: 400V scan
Procedure: as §10, §11, §12, §6, §13, §8, §9
as §2, with “plates were” for “plate was”
as §3

Q: Which Percent retention does the source give for “N-TAMPA- Asp-Norleu- Ala-Norleu-Ser- Norleu-Lys-C [Peptide 2DOS-5]” here?
A: The Percent retention was 23%.

Q: Which Percent retention does the source give for “N-TAMPA-Asp-Asp- Asp-Ala-Asp-Ser- Asp-Lys-Asp-C ({TAMRA}-DDDADSDKD) [Peptide 2DOS-4]” here?
A: The Percent retention was 1%.

Same assay, conditions: 400V scan, unwashed

Q: Which Untreated fluorescence does the source give for “N-TAMPA- Asp-Norleu- Ala-Norleu-Ser- Norleu-Lys-C [Peptide 2DOS-5]” here?
A: The Untreated fluorescence was 745,029.

Q: Which Untreated fluorescence does the source give for “N-TAMPA-Asp-Asp- Asp-Ala-Asp-Ser- Asp-Lys-Asp-C ({TAMRA}-DDDADSDKD) [Peptide 2DOS-4]” here?
A: The Untreated fluorescence was 783,885.

Same assay, conditions: 400V scan, washed 15 minutes in 1 M NaCl in 10 mM tris-HCl (pH 8.0)

Q: Which Retained fluorescence does the source give for “N-TAMPA- Asp-Norleu- Ala-Norleu-Ser- Norleu-Lys-C [Peptide 2DOS-5]” here?
A: The Retained fluorescence was 171,500.

Q: For “N-TAMPA-Asp-Asp- Asp-Ala-Asp-Ser- Asp-Lys-Asp-C ({TAMRA}-DDDADSDKD) [Peptide 2DOS-4]”, which Retained fluorescence is on record?
A: Its Retained fluorescence is 6,714.
